The values below come from patent US20230071283A1, “COMPOSITIONS AND METHODS FOR SELECTIVE PROTEIN EXPRESSION” (Novartis AG, priority 2017, published 2023).

“Also recorded” adds a separate entry of the source.

The test system of one assay is CD19 sCAR T cells. The assay can be described thus: Elimination of CD19 sCAR T cells by AP20187 (live/dead-violet dye, flow cytometry). Format: cell-based, human. The note with it: 16 hours at 37° C. As to the method:
(§1) CAR T cells were incubated in the presence of the indicated concentrations of AP20187 for 16 hours at 37° C. Dead cells were detected with live/dead-violet dye and quantified by flow cytometry. Only T cells that expressed the inducible caspase were eliminated (FMC63 iC9 or CD19 sCAR, as well as iC9 control CAR).
(§2) Elimination of CD19 CAR T cells. CD19 sCAR T cells were incubated in the presence of the indicated concentrations AP20187 for 16 hours at 37° C. Dead cells were detected with live/dead-violet dye and quantified by flow cytometry.
In general terms: In flow cytometry, cells or beads pass a laser one at a time.

The next assay relates to nontransduced T cells. Put plainly: AP20187 treatment of T cells not expressing inducible caspase-9. To be noted: 16 hours at 37° C. Format: cell-based, human. How it is done:
as §1, §2

The target of assay [1] is T1, ERαFD furin degron domain fused to an anti-CD19 scFv CAR (Homo sapiens, UniProt P03372, G521R/L384M/M421G/N519S/T371A/Y537S).
T1 construct: signal peptide (CD8 leader) followed by Arg-Ser linker (N); furin cleavage site (C); anti-CD19 scFv CAR (CD8 hinge, 4-1BB, CD3zeta) (C); expressed in transfected cells; host or cells: Jurkat T cells, lentiviral transduction
T1 sequence (P03372 305-549 T371A/L384M/M421G/N519S/G521R/Y537S): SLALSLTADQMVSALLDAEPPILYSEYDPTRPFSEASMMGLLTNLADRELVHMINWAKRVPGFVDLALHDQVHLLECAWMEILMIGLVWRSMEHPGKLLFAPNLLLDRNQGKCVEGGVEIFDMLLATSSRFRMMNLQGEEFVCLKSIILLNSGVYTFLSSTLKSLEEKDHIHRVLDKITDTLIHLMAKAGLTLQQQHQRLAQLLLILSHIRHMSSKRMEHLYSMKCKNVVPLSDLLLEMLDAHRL
The assay can be described thus: CAR expression by FACS in Jurkat T cells transduced with ERαFD furin degron-anti-CD19 scFv CAR. The note with it: 1 μM, 24 hours. It is filed as cell-based.

Assay [2] has as its system NALM6, a CD19+ target cell line. The assay can be described thus: Cytokine secretion in co-culture with target cells. To be noted: presence or absence of bazedoxifene; 20 hours; versus parental CAR19.
The next assay concerns CD19+ NALM6 cells. Put plainly: Proliferation assay in co-culture with target cells (FACS, counting beads). The note with it: presence or absence of bazedoxifene; 4 days; versus parental CAR19.

Turning to `CC[C@H](C(=O)N1CCCC[C@H]1C(=O)O[C@H](CCc1ccc(OC)c(OC)c1)c1cccc(OCC(=O)NCC(CNC(=O)COc2cccc([C@@H](CCc3ccc(OC)c(OC)c3)OC(=O)[C@@H]3CCCCN3C(=O)[C@@H](CC)c3cc(OC)c(OC)c(OC)c3)c2)CN(C)C)c1)c1cc(OC)c(OC)c(OC)c1` [AP20187], the “Cell death after AP20187” value with CD19 sCAR T cells is “specifically killed; also recorded: specific and robust elimination of CD19 sCAR T cells”; with nontransduced T cells it was “no cell death”.
As to `Oc1ccc2c(c1)CC[C@H](c1ccccc1)[C@@H]2c1ccc(OCCN2CCCC2)cc1` [Lasofoxifene], the “CAR 19 expression” value in assay [1] is listed as “can induce CAR 19 expression”.

B1: construct #106: ERα furin degron (ERmut1) fused to anti-CD19 scFV CAR; furin site GTGAEDPRPSRKRRSLGDVG (SEQ ID NO: 125) (protein)
chain: RSSLALSLTADQMVSALLDAEPPILYSEYDPTRPFSEASMMGLLTNLADRELVHMINWAKRVPGFVDLALHDQVHLLECAWMEILMIGLVWRSMEHPGKLLFAPNLLLDRNQGKCVEGGVEIFDMLLATSSRFRMMNLQGEEFVCLKSIILLNSGVYTFLSSTLKSLEEKDHIHRVLDKITDTLIHLMAKAGLTLQQQHQRLAQLLLILSHIRHMSSKRMEHLYSMKCKNVVPLSDLLLEMLDAHRLGTGAEDPRPSRKRRSLGDVGEIVMTQSPATLSLSPGERATLSCRASQDISKYLNWYQQKPGQAPRLLIYHTSRLHSGIPARFSGSGSGTDYTLTISSLQPEDFAVYFCQQGNTLPYTFGQGTKLEIKGGGGSGGGGSGGGGSQVQLQESGPGLVKPSETLSLTCTVSGVSLPDYGVSWIRQPPGKGLEWIGVIWGSETTYYSSSLKSRVTISKDNSKNQVSLKLSSVTAADTAVYYCAKHYYYGGSYAMDYWGQGTLVTVSSTTTPAPRPPTPAPTIASQPLSLRPEACRPAAGGAVHTRGLDFACDIYIWAPLAGTCGVLLLSLVITLYCKRGRKKLLYIFKQPFMRPVQTTQEEDGCSCRFPEEEEGGCELRVKFSRSADAPAYKQGQNQLYNELNLGRREEYDVLDKRRGRDPEMGGKPRRKNPQEGLYNELQKDKMAEAYSEIGMKGERRRGKGHDGLYQGLSTATKDTYDALHMQALPPR
Consider B1, for which the “levels of IFNγ” value in assay [2] is “secrete IFNγ in the presence of CD19+ tumor cells, in a manner that is stabilizing compound dose-dependent and is noninferior to the parental CAR construct”. For the same molecule, the Proliferation result in the assay on CD19+ NALM6 cells is “proliferate in the presence of CD19+ tumor cells, in a manner that is stabilizing compound-dependent and is noninferior to the parental CAR19 construct”.
